Results reported in PubChem BioAssay (NCI).
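Tested at 5 concentrations; 48 h exposure; 96-well plates; endpoints linearly interpolated, else capped at highest concentration. Definition used: TGI = concentration required for complete inhibition of growth.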

Tests used:
Assay in all cases: NCI-60 cell line screen, 48 h
A498 renal = system: A498 renal
A549 NSCLC = system: A549 NSCLC
ACHN renal = system: ACHN renal
BT-549 breast = system: BT-549 breast
CAKI-1 renal = system: CAKI-1 renal
CCRF-CEM leukemia = system: CCRF-CEM leukemia
COLO 205 colon = system: COLO 205 colon
DU-145 prostate = system: DU-145 prostate
EKVX NSCLC = system: EKVX NSCLC
HCC-2998 colon = system: HCC-2998 colon
HCT-116 colon = system: HCT-116 colon
HCT-15 colon = system: HCT-15 colon
HL-60(TB) leukemia = system: HL-60(TB) leukemia
HOP-62 NSCLC = system: HOP-62 NSCLC
HS 578T breast = system: HS 578T breast
HT29 colon = system: HT29 colon
IGROV1 ovarian = system: IGROV1 ovarian
K-562 leukemia = system: K-562 leukemia
KM12 colon = system: KM12 colon
LOX IMVI melanoma = system: LOX IMVI melanoma
M14 melanoma = system: M14 melanoma
MALME-3M melanoma = system: MALME-3M melanoma
MCF7 breast = system: MCF7 breast
MDA-MB-231 breast = system: MDA-MB-231 breast
MDA-MB-435 = system: MDA-MB-435
MDA-N = system: MDA-N
MOLT-4 leukemia = system: MOLT-4 leukemia
NCI-H23 lung = system: NCI-H23 lung
NCI-H460 lung = system: NCI-H460 lung
NCI-H522 lung = system: NCI-H522 lung
NCI/ADR-RES ovarian = system: NCI/ADR-RES ovarian
OVCAR-3 ovarian = system: OVCAR-3 ovarian
OVCAR-4 ovarian = system: OVCAR-4 ovarian
OVCAR-5 ovarian = system: OVCAR-5 ovarian
OVCAR-8 ovarian = system: OVCAR-8 ovarian
PC-3 prostate = system: PC-3 prostate
RPMI-8226 leukemia = system: RPMI-8226 leukemia
RXF 393 renal = system: RXF 393 renal
SF-268 CNS = system: SF-268 CNS
SF-295 CNS = system: SF-295 CNS
SF-539 CNS = system: SF-539 CNS
SK-MEL-2 melanoma = system: SK-MEL-2 melanoma
SK-MEL-28 melanoma = system: SK-MEL-28 melanoma
SK-MEL-5 melanoma = system: SK-MEL-5 melanoma
SK-OV-3 ovarian = system: SK-OV-3 ovarian
SN12C renal = system: SN12C renal
SNB-19 CNS = system: SNB-19 CNS
SNB-75 CNS = system: SNB-75 CNS
SW-620 colon = system: SW-620 colon
T-47D breast = system: T-47D breast
TK-10 renal = system: TK-10 renal
U251 CNS = system: U251 CNS
UACC-257 melanoma = system: UACC-257 melanoma
UACC-62 melanoma = system: UACC-62 melanoma
UO-31 renal = system: UO-31 renal
786-0 renal = system: 786-0 renal
HOP-92 NSCLC = system: HOP-92 NSCLC
NCI-H226 lung = system: NCI-H226 lung

O=C(O)c1cccc2cccc(-c3c4ccc(=O)cc-4oc4cc(O)ccc34)c12
TGI (A498 renal): > 100 µM | TGI (A549 NSCLC): > 100 µM | TGI (ACHN renal): > 100 µM | TGI (BT-549 breast): > 100 µM | TGI (CAKI-1 renal): > 100 µM | TGI (CCRF-CEM leukemia): > 100 µM | TGI (COLO 205 colon): > 100 µM | TGI (DU-145 prostate): > 100 µM | TGI (EKVX NSCLC): > 100 µM | TGI (HCC-2998 colon): > 100 µM | TGI (HCT-116 colon): > 100 µM | TGI (HCT-15 colon): > 100 µM | TGI (HL-60(TB) leukemia): > 100 µM | TGI (HOP-62 NSCLC): 37.2 µM | TGI (HS 578T breast): > 100 µM | TGI (HT29 colon): > 100 µM | TGI (IGROV1 ovarian): > 100 µM | TGI (K-562 leukemia): > 100 µM | TGI (KM12 colon): > 100 µM | TGI (LOX IMVI melanoma): > 100 µM | TGI (M14 melanoma): > 100 µM | TGI (MALME-3M melanoma): > 100 µM | TGI (MCF7 breast): > 100 µM | TGI (MDA-MB-231 breast): > 100 µM | TGI (MDA-MB-435): > 100 µM | TGI (MDA-N): > 100 µM | TGI (MOLT-4 leukemia): > 100 µM | TGI (NCI-H23 lung): > 100 µM | TGI (NCI-H460 lung): > 100 µM | TGI (NCI-H522 lung): > 100 µM | TGI (NCI/ADR-RES ovarian): > 100 µM | TGI (OVCAR-3 ovarian): 54.1 µM | TGI (OVCAR-4 ovarian): > 100 µM | TGI (OVCAR-5 ovarian): > 100 µM | TGI (OVCAR-8 ovarian): > 100 µM | TGI (PC-3 prostate): > 100 µM | TGI (RPMI-8226 leukemia): > 100 µM | TGI (RXF 393 renal): > 100 µM | TGI (SF-268 CNS): > 100 µM | TGI (SF-295 CNS): > 100 µM | TGI (SF-539 CNS): > 100 µM | TGI (SK-MEL-2 melanoma): > 100 µM | TGI (SK-MEL-28 melanoma): > 100 µM | TGI (SK-MEL-5 melanoma): > 100 µM | TGI (SK-OV-3 ovarian): > 100 µM | TGI (SN12C renal): > 100 µM | TGI (SNB-19 CNS): > 100 µM | TGI (SNB-75 CNS): > 100 µM | TGI (SW-620 colon): > 100 µM | TGI (T-47D breast): > 100 µM | TGI (TK-10 renal): > 100 µM | TGI (U251 CNS): > 100 µM | TGI (UACC-257 melanoma): > 100 µM | TGI (UACC-62 melanoma): > 100 µM | TGI (UO-31 renal): > 100 µM

C#C[C@]1(O)CC[C@H]2[C@@H]3CCC4=CC(=NCCOC(=O)c5cccc6cc7ccccc7nc56)CC[C@@H]4[C@H]3CC[C@@]21C
TGI (786-0 renal): > 100 µM | TGI (A498 renal): > 100 µM | TGI (A549 NSCLC): > 100 µM | TGI (ACHN renal): > 100 µM | TGI (BT-549 breast): 74.2 µM | TGI (CAKI-1 renal): > 100 µM | TGI (CCRF-CEM leukemia): > 100 µM | TGI (COLO 205 colon): > 100 µM | TGI (DU-145 prostate): > 100 µM | TGI (EKVX NSCLC): > 100 µM | TGI (HCT-116 colon): > 100 µM | TGI (HCT-15 colon): 43.1 µM | TGI (HL-60(TB) leukemia): > 100 µM | TGI (HOP-62 NSCLC): > 100 µM | TGI (HOP-92 NSCLC): 48.6 µM | TGI (HS 578T breast): 63.8 µM | TGI (HT29 colon): > 100 µM | TGI (IGROV1 ovarian): 30.8 µM | TGI (K-562 leukemia): > 100 µM | TGI (KM12 colon): 97.2 µM | TGI (LOX IMVI melanoma): 24.8 µM | TGI (M14 melanoma): 61.3 µM | TGI (MALME-3M melanoma): 74.4 µM | TGI (MCF7 breast): 69.4 µM | TGI (MDA-MB-231 breast): 44.8 µM | TGI (MDA-MB-435): > 100 µM | TGI (MDA-N): > 100 µM | TGI (MOLT-4 leukemia): > 100 µM | TGI (NCI-H226 lung): > 100 µM | TGI (NCI-H23 lung): 62.5 µM | TGI (NCI-H460 lung): 35.8 µM | TGI (NCI-H522 lung): 45.6 µM | TGI (NCI/ADR-RES ovarian): 81.3 µM | TGI (OVCAR-3 ovarian): > 100 µM | TGI (OVCAR-4 ovarian): > 100 µM | TGI (OVCAR-5 ovarian): > 100 µM | TGI (OVCAR-8 ovarian): 21.9 µM | TGI (PC-3 prostate): 34.9 µM | TGI (RXF 393 renal): 28.3 µM | TGI (SF-268 CNS): 72.3 µM | TGI (SF-295 CNS): 67.6 µM | TGI (SK-MEL-2 melanoma): 53.9 µM | TGI (SK-MEL-28 melanoma): > 100 µM | TGI (SK-MEL-5 melanoma): > 100 µM | TGI (SK-OV-3 ovarian): > 100 µM | TGI (SN12C renal): > 100 µM | TGI (SNB-19 CNS): > 100 µM | TGI (SW-620 colon): > 100 µM | TGI (T-47D breast): 75.9 µM | TGI (TK-10 renal): > 100 µM | TGI (U251 CNS): 25.2 µM | TGI (UACC-257 melanoma): > 100 µM | TGI (UACC-62 melanoma): 96.1 µM | TGI (UO-31 renal): > 100 µM

CC(C)(C)C(=O)N(C(=S)OCc1ccccn1)c1ccccc1
TGI (786-0 renal): > 100 µM | TGI (A498 renal): > 100 µM | TGI (ACHN renal): > 100 µM | TGI (BT-549 breast): > 100 µM | TGI (CAKI-1 renal): > 100 µM | TGI (CCRF-CEM leukemia): 68 µM | TGI (COLO 205 colon): 49.6 µM | TGI (DU-145 prostate): > 100 µM | TGI (EKVX NSCLC): 57.7 µM | TGI (HCT-116 colon): 52.3 µM | TGI (HCT-15 colon): 85.2 µM | TGI (HL-60(TB) leukemia): 64.8 µM | TGI (HOP-62 NSCLC): 46.8 µM | TGI (HS 578T breast): > 100 µM | TGI (HT29 colon): > 100 µM | TGI (IGROV1 ovarian): 54.3 µM | TGI (K-562 leukemia): > 100 µM | TGI (KM12 colon): 71.4 µM | TGI (LOX IMVI melanoma): 51.6 µM | TGI (M14 melanoma): > 100 µM | TGI (MALME-3M melanoma): 44.6 µM | TGI (MCF7 breast): 61.5 µM | TGI (MDA-MB-231 breast): > 100 µM | TGI (MDA-MB-435): > 100 µM | TGI (MDA-N): > 100 µM | TGI (MOLT-4 leukemia): 62.4 µM | TGI (NCI-H226 lung): > 100 µM | TGI (NCI-H23 lung): > 100 µM | TGI (NCI/ADR-RES ovarian): 91.8 µM | TGI (OVCAR-3 ovarian): > 100 µM | TGI (OVCAR-5 ovarian): > 100 µM | TGI (OVCAR-8 ovarian): > 100 µM | TGI (PC-3 prostate): > 100 µM | TGI (RPMI-8226 leukemia): 58.7 µM | TGI (RXF 393 renal): 63.9 µM | TGI (SF-268 CNS): > 100 µM | TGI (SF-539 CNS): 46.3 µM | TGI (SK-MEL-2 melanoma): 70.5 µM | TGI (SK-MEL-28 melanoma): > 100 µM | TGI (SK-MEL-5 melanoma): 46.6 µM | TGI (SK-OV-3 ovarian): > 100 µM | TGI (SN12C renal): > 100 µM | TGI (SNB-19 CNS): > 100 µM | TGI (SW-620 colon): > 100 µM | TGI (T-47D breast): 63.5 µM | TGI (TK-10 renal): > 100 µM | TGI (U251 CNS): > 100 µM | TGI (UACC-257 melanoma): > 100 µM | TGI (UACC-62 melanoma): > 100 µM | TGI (UO-31 renal): 84.3 µM
